In BindingDB's records for doi:10.1016/j.bmc.2010.05.071 (University of Innsbruck and Center For Molecular …, 2010):

Target: Acetylcholinesterase (Electrophorus electricus, UniProt O42275)
Experiment: Inhibition of electric eel AChE by Ellman's method

Chain of Acetylcholinesterase (O42275 whole entry): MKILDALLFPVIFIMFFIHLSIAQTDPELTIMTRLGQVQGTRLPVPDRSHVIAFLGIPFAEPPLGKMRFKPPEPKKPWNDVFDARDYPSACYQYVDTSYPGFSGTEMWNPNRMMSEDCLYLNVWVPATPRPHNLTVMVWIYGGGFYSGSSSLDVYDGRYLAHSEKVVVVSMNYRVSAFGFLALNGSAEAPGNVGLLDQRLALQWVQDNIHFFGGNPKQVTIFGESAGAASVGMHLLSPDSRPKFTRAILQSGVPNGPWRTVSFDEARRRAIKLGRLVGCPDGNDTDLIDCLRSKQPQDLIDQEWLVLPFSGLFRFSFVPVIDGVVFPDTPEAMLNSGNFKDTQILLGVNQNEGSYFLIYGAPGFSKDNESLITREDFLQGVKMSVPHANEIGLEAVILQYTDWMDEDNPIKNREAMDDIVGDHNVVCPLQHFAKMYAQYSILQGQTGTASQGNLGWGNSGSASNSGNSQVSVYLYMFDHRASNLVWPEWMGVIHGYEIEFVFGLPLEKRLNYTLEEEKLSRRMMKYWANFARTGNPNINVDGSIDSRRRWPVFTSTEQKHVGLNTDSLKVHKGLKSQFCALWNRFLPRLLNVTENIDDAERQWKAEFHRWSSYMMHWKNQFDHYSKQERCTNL

**Q.** How did the IC50 turn out when O=CN1CC[C@]23CC(=O)CC[C@H]2[C@H]1Cc1c(O)ccc(O)c13 was run?
**A.** 12.7 µM
